Test results reported in patent US20240083888A1, “SMALL MOLECULE INHIBITOR FOR CATHEPSIN C AND MEDICINAL USE THEREOF” (REISTONE BIOPHARMA COMPANY LIMITED, priority 2020, published 2024).

Tests used:
[1] = Pharmacokinetic experiment in beagle dogs; type: in vivo; parameters: clearance: unit not given here
Procedure: Beagle dogs (male, 9 to 11 kg)
Pharmacokinetic characteristics of the compounds in beagle dogs after intravenous or oral administration were determined by standard protocols. In the experiment, the compound was formulated into a clear solution, and administered to beagle dogs by single intravenous injection or oral administration. The intravenous injection vehicle was a mixed vehicle of 5% dimethyl sulfoxide and 95% (28% aqueous hydroxypropyl beta cyclodextrin solution). The oral vehicle is a solution of 0.5% hydroxypropylmethylcellulose and 0.1% polysorbate 80 in water. Whole blood samples within 24 hours were collected, and the supernatants were separated to obtain plasma samples. The sample was centrifuged to obtain the supernatant, to which an equal volume of water was added. The resulting solution was centrifuged to obtain the supernatant, which was injected into the analysis machine. Quantitative analysis of plasma concentration was carried out by LC-MS/MS analysis method, and the pharmacokinetic parameters, such as peak concentration (Cmax), clearance (Cl), half-life (T1/2), volume of distribution (Vdss) and area under the drug-time curve (AUC), were calculated.

[2] = tested on: neutrophil elastase (NE) downstream of CatC; test: Target binding model in C57BL/6 mice: NE protease activity in bone marrow; type: in vivo; settings: 3 mg/kg PO, 8 days, bone marrow cell lysate, female C57BL/6 mice
Procedure: 1. Experimental protocol: In order to investigate the inhibitory effect of the compounds on the activity of neutrophil elastase (hereinafter referred to as NE) downstream of CatC in neutrophil, female C57BL/6 mice were administered according to the following table:
2. Experimental procedures: The compound or vehicle control was administered continuously for 8 days. On Day 1 to 7, the compound or vehicle control was administered twice a day with an administration interval of 6 hours. On Day 8, the test material was collected one hour after the first administration. […] The sample was washed once with Dulbecco's phosphate buffer, centrifuged at 400 g for 5 minutes and counted. […] The supernatant was stored at −80° C. until protease activity was determined. The protease activity in the cell lysates of each group was determined using the NE protease activity detection kit (Sigma-Aldrich MAK246). 7.5 μL of 3× diluted bone marrow cell lysate or 7.5 μL of double-diluted NE standard and 7.5 μL of 25× diluted substrate were added to a 384-well plate, and the NE protease activity was immediately monitored in real-time at Ex 380 nm and Em 500 nm for 30 minutes. The RFU within the linear reaction time was determined, and the NE protease activity (ng/ml) in the sample was calibrated by the standard curve.

CatC = CatC (Homo sapiens (Human), UniProt P53634); test: In vitro CatC cell activity experiment in U937 cell line; type: cell-based
Procedure: The U937 cell line was resuscitated and passed for about two generations, and the cell line with good growth status was selected. The cell suspension was transferred into a centrifuge tube, and centrifuged at 800 to 1000 rpm for 3 to 5 minutes. The supernatant was discarded. An appropriate volume of culture medium was added to the centrifuge tube, which was gently pipetted to resuspend the cells evenly. The cells were counted using a Vi-Cell XR cell counter. The cell suspension was adjusted to an appropriate concentration. The cell suspension was added into a 384-well plate ([…]). The compound was formulated into a 10 mM solution with DMSO. The compound was diluted with DMSO to obtain a 1 mM solution, and a semi-logarithmi dilution was carried out by HPD300 with DMSO to obtain 10 concentrations. Gly-Phe-AFC was formulated into a 35 mM solution with DMSO and divided. […] After adding the compounds and incubating for 1 hour in an incubator, substrate-AFC was added (12.5 μL was added to the plate). The plate was incubated for 30 minutes and read. […] XLFit was used to draw the drug efficacy inhibition rate curve and calculate the IC50 value. 4-parameter model [fit=(A+((B−A)/(1+((C/x)^D))))] was used.

rhCatC = rhCatC (Homo sapiens (Human), UniProt P53634); test: In vitro enzyme activity experiment of rhCatC (AMC fluorescence assay); type: biochemical; settings: rhCatC enzyme, substrate H-Gly-Arg-AMC; read-out: Biological activity IC50
[3] = Pharmacokinetic experiment in BALB/c mice; type: in vivo
Procedure: BALB/c mice (male, 20 to 30 g, fasting)
Pharmacokinetic characteristics of the compounds in rodent after intravenous or oral administration were determined by standard protocols. In the experiment, the compound was formulated into a clear solution, and administered to mice by single intravenous injection or oral administration. The intravenous injection vehicle was a mixed vehicle of 500 dimethyl sulfoxide and 9500 (3000 aqueous sulfobutylether cyclodextrin solution). The oral vehicle is a solution of 0.50% hydroxypropylmethylcellulose and 0.10% polysorbate 80 in water. Whole blood samples within 24 hours were collected, and the supernatants were separated to obtain plasma samples. Quantitative analysis of plasma concentration was carried out by LC-MS/MS analysis method, and the pharmacokinetic parameters, such as peak concentration (Cmax), clearance (Cl), half-life (T1/2), volume of distribution (Vdss) and area under the drug-time curve (AUC), were calculated.

[4] = male, mouse, plasma, IV, 2 mg/kg
[5] = male, mouse, plasma, PO, 5 mg/kg

Sequence of rhCatC (P53634 25-134): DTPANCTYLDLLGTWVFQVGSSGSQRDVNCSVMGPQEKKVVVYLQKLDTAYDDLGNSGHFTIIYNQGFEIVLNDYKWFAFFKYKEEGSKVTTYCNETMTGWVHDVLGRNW
Sequence of rhCatC (P53634 231-394): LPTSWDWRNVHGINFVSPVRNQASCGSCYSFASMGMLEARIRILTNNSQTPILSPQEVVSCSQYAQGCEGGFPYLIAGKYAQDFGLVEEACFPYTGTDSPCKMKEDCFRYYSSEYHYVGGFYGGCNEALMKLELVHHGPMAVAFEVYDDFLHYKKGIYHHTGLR
Sequence of rhCatC (P53634 395-463): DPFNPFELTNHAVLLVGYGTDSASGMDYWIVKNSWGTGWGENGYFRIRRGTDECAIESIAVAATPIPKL
Sequence of CatC (P53634 25-134): as the sequence (P53634 25-134) above
Sequence of CatC (P53634 231-394): as the sequence (P53634 231-394) above
Sequence of CatC (P53634 395-463): as the sequence (P53634 395-463) above

Compound: N#Cc1ccc2c(c1)COc1cc(C[C@@H](C#N)NC(=O)[C@@H]3CNCCCO3)c(F)cc1-2 [Compound 14, (S)—N—((S)-1-Cyano-2-(8-cyano-2-fluoro-6H-benzo[c]chromen-3-yl)ethyl)-1,4-oxazepane-2-carboxamide]
- PK properties compared with AZD7986 [1]: better PK properties than AZD7986
- decrease of clearance rate compared with AZD7986 ([1]; IV): about 3 times
- increase of intravenous exposure compared with AZD7986 ([1]; IV): 3.4 times
- increase of oral exposure compared with AZD7986 ([1]; PO): 3.0 times
- AUC(0-t) ([1]; male, dog, plasma, IV, 1 mg/kg): 4790 ng·h/mL
- clearance ([1]; male, dog, plasma, IV, 1 mg/kg): 0.172
- half-life ([1]; male, dog, plasma, IV, 1 mg/kg): 10.2 h
- Vd ([1]; male, dog, plasma, IV, 1 mg/kg, read-out: Vdss): 2.29 L/kg
- AUC(0-t) ([1]; male, dog, plasma, PO, 2 mg/kg): 10900 ng·h/mL
- Tmax ([1]; male, dog, plasma, PO, 2 mg/kg): 3.33 h
- bioavailability ([1]; male, dog, plasma, PO, 2 mg/kg): 100%
- half-life ([1]; male, dog, plasma, PO, 2 mg/kg): 12.3 h
- inhibitory rate of NE protease activity compared with AZD7986 [2]: higher inhibitory rate of NE protease activity than the reference compound AZD7986
- IC50 (CatC): 6.1 nM
- IC50 (rhCatC): 5.31 nM
- PK properties compared with AZD7986 [3]: better PK properties than AZD7986
- oral bioavailability compared with AZD7986 [3]: increased
- decrease of clearance rate compared with AZD7986 ([3]; IV): about 1.8 times
- increase of intravenous exposure compared with AZD7986 ([3]; IV): 1.8 times
- increase of oral exposure compared with AZD7986 ([3]; PO): 3.1 times
- AUC(0-t) [3, 4]: 3770 ng·h/mL
- clearance [3, 4]: 8.49 mL/min/kg
- half-life [3, 4]: 3.08 h
- Vd ([3]; male, mouse, plasma, IV, 2 mg/kg, read-out: Vdss): 1.75 L/kg
- AUC(0-t) [3, 5]: 6610 ng·h/mL
- Tmax [3, 5]: 0.5 h
- bioavailability [3, 5]: 65.3%
- half-life [3, 5]: 2.69 h
